Measured values published in patent US20240279265A1, “CRYSTAL FORMS OF GLUCOSAMINE DERIVATIVE, AND PREPARATION METHOD THEREFOR AND USE THEREOF” (RISEN (SUZHOU) PHARMA TECH CO., LTD., priority 2021, published 2024).

Legend:
Format in all cases: physicochemical
[1] = Thermogravimetric analysis (TGA); conditions: heated at 10° C./min under nitrogen
Method: TGA: Samples were analyzed using a TA Instruments TGA Discovery 550. The sample were placed in a tared aluminum tray and automatically weighed, and then the samples were brought to the specified temperatures at a rate of 10° C./min under the protection of nitrogen. In the present invention, the TGA graphs of the above three samples are illustrated in the form of overlay, as shown in FIG. 5.

[2] = Dynamic vapor sorption (DVS); conditions: for Mass change (%) - ref, Delay: desorption minus sorption; for DVS weight gain at an RH of 80%: RH 80%, 25±1° C.
Method: DVS: Samples were analyzed using an Intrinsic DVS ([…] UK). The amount of test sample was about 20-30 mg. The temperature of the test chamber was controlled between 25±1° C., the relative humidity was increased from 0% to 90% and then decreased to 0% at a rate of 10%/h, and the quality data was recorded every 20 s.

Solubility test in water = conditions: purified water, room temperature, stirred 2 hours
Method: The excess crystals were dissolved in an amount of purified water in a 4 ml vial at room temperature. The mass of an empty watch glass was recorded as m1.
The suspension was stirred for 2 hours and then filtered through a […] into an empty watch glass, the mass m2 at this point was recorded for this watch glass, and the remaining solid was used for XRPD analysis.
The watch glass containing the filtrate was dried in an oven at 40° C. After drying, the mass m3 was recorded and the solubility data of the substrate could be calculated. The masses of the watch glass as well as the amounts of solid and solution are listed in Table 6, and the experimental results are shown in Table 7 and FIG. 12.

[3] = Solubility in buffer of crystalline form I
Excerpt: The solubility of crystalline form I of the present invention was investigated at room temperature in buffers at pH 1.2, 4.5 and 6.8. The procedure was consistent with that of the solubility test in water. The masses of the watch glass as well as the amounts of solid and solution are listed in Table 8, and the experimental results are shown in Table 9.

[4] = Stability test (crystalline form by XRPD); conditions: one week
Method: 10 mg of the solid was placed into a 2 ml glass vial and the vial was transferred to a stability chamber. The experimental conditions were 25° C./92.5% RH, 40° C./75% RH, 60° C., and light, respectively.

Row | Structure (SMILES) | TGA weight loss (wt %) [1] | Mass change (%) - ref, Desorption ([2]; Cycle 1, objective RH 0.0%) [%] | Mass change (%) - ref, Sorption ([2]; Cycle 1, objective RH 0.0%) [%] | Mass change (%) - ref, Desorption ([2]; Cycle 1, objective RH 10.0%) [%] | Mass change (%) - ref, Sorption ([2]; Cycle 1, objective RH 10.0%) [%] | Mass change (%) - ref, Delay ([2]; Cycle 1, objective RH 10.0%) [%] | Mass change (%) - ref, Desorption ([2]; Cycle 1, objective RH 20.0%) [%] | Mass change (%) - ref, Sorption ([2]; Cycle 1, objective RH 20.0%) [%] | Mass change (%) - ref, Delay ([2]; Cycle 1, objective RH 20.0%) [%] | Mass change (%) - ref, Desorption ([2]; Cycle 1, objective RH 30.0%) [%] | Mass change (%) - ref, Sorption ([2]; Cycle 1, objective RH 30.0%) [%] | Mass change (%) - ref, Delay ([2]; Cycle 1, objective RH 30.0%) [%] | Mass change (%) - ref, Desorption ([2]; Cycle 1, objective RH 40.0%) [%] | Mass change (%) - ref, Sorption ([2]; Cycle 1, objective RH 40.0%) [%] | Mass change (%) - ref, Delay ([2]; Cycle 1, objective RH 40.0%) [%] | Mass change (%) - ref, Desorption ([2]; Cycle 1, objective RH 50.0%) [%] | Mass change (%) - ref, Sorption ([2]; Cycle 1, objective RH 50.0%) [%] | Mass change (%) - ref, Delay ([2]; Cycle 1, objective RH 50.0%) [%] | DVS weight gain at an RH of 80% [2] [%] | Solubility in water (Solubility test in water) [mg/g] | further results
1 | CCCC(=O)N[C@H]1C(O)O[C@H](COC(=O)CCC)[C@@H](OC(=O)CCC)[C@@H]1O (stereo partly drawn) [Crystalline Form I, 2-N-4,6-di-O-tributyryl-D-glucosamine] | 0.344 wt % | −0.022 | 0.001 | 0.082 | 0.092 | −0.010 | 0.160 | 0.175 | −0.015 | 0.270 | 0.276 | −0.006 | 0.409 | 0.417 | −0.007 | 0.498 | 0.502 | −0.003 | 1.037 | 9.02 | Mass change (%) - ref, Desorption ([2]; Cycle 1, objective RH 60.0%): 0.627%; Mass change (%) - ref, Sorption ([2]; Cycle 1, objective RH 60.0%): 0.626%; Mass change (%) - ref, Delay ([2]; Cycle 1, objective RH 60.0%): 0.001%; Mass change (%) - ref, Desorption ([2]; Cycle 1, objective RH 70.0%): 0.789%; Mass change (%) - ref, Sorption ([2]; Cycle 1, objective RH 70.0%): 0.800%; Mass change (%) - ref, Delay ([2]; Cycle 1, objective RH 70.0%): −0.011%; Mass change (%) - ref, Desorption ([2]; Cycle 1, objective RH 80.0%): 1.031%; Mass change (%) - ref, Sorption ([2]; Cycle 1, objective RH 80.0%): 1.037%; Mass change (%) - ref, Delay ([2]; Cycle 1, objective RH 80.0%): −0.006%; Mass change (%) - ref, Desorption ([2]; Cycle 1, objective RH 90.0%): 1.662%; Mass change (%) - ref, Sorption ([2]; Cycle 1, objective RH 90.0%): 1.662%; Solubility in water (Solubility test in water; listed as crystalline form I): 9.08 mg/g; Solubility in buffer ([3]; buffer pH 1.2, room temperature): 4.08 mg/g; Solubility in buffer ([3]; buffer pH 4.5, room temperature): 6.58 mg/g; Solubility in buffer ([3]; buffer pH 6.8, room temperature): 10.02 mg/g; Whether the crystalline form is changed ([4]; 25° C., 92.5% RH): No; Whether the crystalline form is changed ([4]; 40° C., 75% RH): No; Whether the crystalline form is changed ([4]; 60° C.): No; Whether the crystalline form is changed ([4]; Light): No
2 | CCCC(=O)N[C@H]1C(O)O[C@H](COC(=O)CCC)[C@@H](OC(=O)CCC)[C@@H]1O (stereo partly drawn) [API, 2-N-4,6-di-O-tributyryl-D-glucosamine] | 0.966 wt % | – | – | – | – | – | – | – | – | – | – | – | – | – | – | – | – | – | 2.440 | 8.12 | –
3 | CCCC(=O)N[C@H]1C(O)O[C@H](COC(=O)CCC)[C@@H](OC(=O)CCC)[C@@H]1O (stereo partly drawn) [Crystalline Form II, 2-N-4,6-di-O-tributyryl-D-glucosamine] | None | 0.023 | 0.000 | 0.552 | 0.086 | 0.466 | 0.659 | 0.165 | 0.494 | 0.777 | 0.257 | 0.520 | 0.913 | 0.324 | 0.590 | 0.968 | 0.368 | 0.600 | 0.869 | 9.08 | Mass change (%) - ref, Desorption ([2]; Cycle 1, objective RH 60.0%): 1.080%; Mass change (%) - ref, Sorption ([2]; Cycle 1, objective RH 60.0%): 0.457%; Mass change (%) - ref, Delay ([2]; Cycle 1, objective RH 60.0%): 0.623%; Solubility in water (Solubility test in water; listed as crystalline form II): 9.02 mg/g
